# Source: patent US20100113613A1, “CYCLOHEXANE POLYALCOHOL FORMULATION FOR TREATMENT OF DISORDERS OF PROTEIN AGGREGATION” (WARATAH PHARMACEUTICALS, priority 2006, published 2010)
# Experiments:
# in vivo [1] = conditions: dog, po
# Procedure: Three studies were performed to investigate the pharmacokinetics of oral administration of a scyllo-cyclohexanehexyl (Table 1):
# Two studies have investigated the single dose PK of oral administration of a scyllo-cyclohexanehexyl in dogs. The 14 day study investigated 18 animals. On Day 1 of this study Cmax and AUC values increased proportionally with dose level of a scyllo-cyclohexanehexyl. […] The extensive brain penetrance of the scyllo-cyclohexanhexyl (see below) may be relevant in this regard.
# in vivo [2] = conditions: dog; for AUC(0-inf) / AUC(0-t) / CL/F / Cmax / MRT / Tmax / VdSS / half-life: po
# Procedure: Plasma PK of a scyllo-cyclohexanhexyl in dogs was assessed after 14 days oral dosing of 15, 50 and 150 mg/kg, administered twice daily. As on Day 1 of this study Cmax and AUC values increased proportionally with dose level of scyllo-cyclohexanehexyl. However, dose-normalised exposures appeared to decrease with dose. This contrasts with positive trend observed after acute exposure. […] As for single doses, the scyllo-cyclohexanehexyl was absorbed rapidly, with tmax observed between 1.1 and 1.8 hours post-dose. […] Estimates of MRT were consistent. The Vdss and Cl/F values were similar for all dose levels.
# in vivo [3] = conditions: rat; for kel / Vd: 28 days
# Procedure: Plasma PK of a scyllo-cyclohexanehexyl compound in rats was assessed after 28 days oral dosing of 15, 50 and 150 mg/kg, administered twice daily. […] Indeed, at this dose level, the Vdss, clearance and elimination rates appeared to be reduced with repeated dosing. […] As for single doses, the scyllo-cyclohexanehexyl was absorbed rapidly, with mean tmax observed between 1.2 and 1.3 hours post-dose. […] Estimates of MRT were consistent.
# [4] = Brain penetrance: plasma and CSF pharmacokinetics after single oral doses in dogs; format: in vivo, dog; conditions: dog, CSF
# Text: CSF bathes the central nervous system and sits on the inside of the blood brain barrier. Although a centrally-acting drug will still need to penetrate brain tissue to exert an effect, quantification of drug in CSF may provide a gross estimate of brain-penetrance.
smiles,measurement,setting,value
"OC1C(O)C(O)C(O)C(O)C1O (centres unmarked) [AZD-103, scyllo-inositol]",AUC(0-inf),in vivo [1]; 15 mg/kg,23.8 ± 4.5 µg·h/mL
same,AUC(0-t),in vivo [1]; 15 mg/kg,22.6 ± 4.5 µg·h/mL
same,CL/F,in vivo [1]; 15 mg/kg,0.182 L/h/kg
same,Cmax,in vivo [1]; 15 mg/kg,10 ± 2.5 µg/mL
same,MRT,in vivo [1]; 15 mg/kg,3.5 ± 0.8 h
same,Tmax,in vivo [1]; 15 mg/kg,1.7 ± 0.5 h
same,VdSS,in vivo [1]; 15 mg/kg,0.6325 ± 0.2371 L/kg
same,half-life,in vivo [1]; 15 mg/kg,2 ± 0.8 h
same,kel,in vivo [1]; 15 mg/kg,0.4 ± 0.2 h⁻¹
same,AUC(0-inf),in vivo [1]; 50 mg/kg,116 ± 22.8 µg·h/mL
same,AUC(0-t),in vivo [1]; 50 mg/kg,114 ± 22.9 µg·h/mL
same,CL/F,in vivo [1]; 50 mg/kg,0.124 L/h/kg
same,Cmax,in vivo [1]; 50 mg/kg,47.4 ± 12.7 µg/mL
same,MRT,in vivo [1]; 50 mg/kg,2.9 ± 0.3 h
same,Tmax,in vivo [1]; 50 mg/kg,1.2 ± 0.4 h
same,VdSS,in vivo [1]; 50 mg/kg,0.3659 ± 0.1219 L/kg
same,half-life,in vivo [1]; 50 mg/kg,2.1 ± 0.3 h
same,kel,in vivo [1]; 50 mg/kg,0.3 ± 0.04 h⁻¹
same,AUC(0-inf),in vivo [1]; 150 mg/kg,455 ± 121 µg·h/mL
same,AUC(0-t),in vivo [1]; 150 mg/kg,450 ± 118 µg·h/mL
same,CL/F,in vivo [1]; 150 mg/kg,0.0937 L/h/kg
same,Cmax,in vivo [1]; 150 mg/kg,124 ± 22.7 µg/mL
same,MRT,in vivo [1]; 150 mg/kg,3.3 ± 0.3 h
same,Tmax,in vivo [1]; 150 mg/kg,2.2 ± 0.4 h
same,VdSS,in vivo [1]; 150 mg/kg,0.3074 ± 0.0744 L/kg
same,half-life,in vivo [1]; 150 mg/kg,1.7 ± 0.2 h
same,kel,in vivo [1]; 150 mg/kg,0.4 ± 0.05 h⁻¹
same,kel,in vivo [2]; 15 mg/kg,0.2 ± 0.08 h⁻¹
same,kel,in vivo [2]; 50 mg/kg,0.2 ± 0.1 h⁻¹
same,kel,in vivo [2]; 150 mg/kg,0.3 ± 0.04 h⁻¹
same,AUC(0-inf),in vivo [2]; 15 mg/kg,95.2 ± 18.6 µg·h/mL
same,AUC(0-t),in vivo [2]; 15 mg/kg,75.2 ± 9.4 µg·h/mL
same,CL/F,in vivo [2]; 15 mg/kg,0.0419 L/h/kg
same,Cmax,in vivo [2]; 15 mg/kg,16.4 ± 4.5 µg/mL
same,MRT,in vivo [2]; 15 mg/kg,7.4 ± 1.5 h
same,Tmax,in vivo [2]; 15 mg/kg,1.7 ± 0.5 h
same,VdSS,in vivo [2]; 15 mg/kg,0.3017 ± 0.0419 L/kg
same,half-life,in vivo [2]; 15 mg/kg,4.7 ± 2 h
same,AUC(0-inf),in vivo [2]; 50 mg/kg,262 ± 52.4 µg·h/mL
same,AUC(0-t),in vivo [2]; 50 mg/kg,232 ± 50.2 µg·h/mL
same,CL/F,in vivo [2]; 50 mg/kg,0.0516 L/h/kg
same,Cmax,in vivo [2]; 50 mg/kg,59.4 ± 13 µg/mL
same,MRT,in vivo [2]; 50 mg/kg,5.3 ± 1.2 h
same,Tmax,in vivo [2]; 50 mg/kg,1.1 ± 0.5 h
same,VdSS,in vivo [2]; 50 mg/kg,0.2726 ± 0.1217 L/kg
same,half-life,in vivo [2]; 50 mg/kg,3.8 ± 1.2 h
same,AUC(0-inf),in vivo [2]; 150 mg/kg,557 ± 133 µg·h/mL
same,AUC(0-t),in vivo [2]; 150 mg/kg,523 ± 123 µg·h/mL
same,CL/F,in vivo [2]; 150 mg/kg,0.0721 L/h/kg
same,Cmax,in vivo [2]; 150 mg/kg,121 ± 26.7 µg/mL
same,MRT,in vivo [2]; 150 mg/kg,4.6 ± 0.4 h
same,Tmax,in vivo [2]; 150 mg/kg,1.8 ± 0.4 h
same,VdSS,in vivo [2]; 150 mg/kg,0.3321 ± 0.0881 L/kg
same,half-life,in vivo [2]; 150 mg/kg,2.9 ± 0.6 h
same,kel,in vivo [3]; 15 mg/kg,0.16 ± 0.03 h⁻¹
same,kel,in vivo [3]; 50 mg/kg,0.21 ± 0.03 h⁻¹
same,kel,in vivo [3]; 150 mg/kg,0.22 ± 0.02 h⁻¹
same,AUC(0-inf),"in vivo [3]; po, 15 mg/kg",195 ± 71.7 µg·h/mL
same,AUC(0-t),"in vivo [3]; po, 15 mg/kg",161 ± 57.7 µg·h/mL
same,CL/F at 28 days,"in vivo [3]; po, 15 mg/kg",0.174 L/h/kg
same,Cmax at 28 days,"in vivo [3]; po, 15 mg/kg",28.5 ± 4.9 µg/mL
same,MRT at 28 days,"in vivo [3]; po, 15 mg/kg",6.7 ± 0.6 h
same,Tmax,"in vivo [3]; po, 15 mg/kg",1.3 ± 0.5 h
same,half-life at 28 days,"in vivo [3]; po, 15 mg/kg",4.4 ± 0.6 h
same,Vd,"in vivo [3]; po, 15 mg/kg",1.14 L/kg
same,AUC(0-inf),"in vivo [3]; po, 50 mg/kg",298 ± 82.2 µg·h/mL
same,AUC(0-t),"in vivo [3]; po, 50 mg/kg",271 ± 70.7 µg·h/mL
same,CL/F at 28 days,"in vivo [3]; po, 50 mg/kg",0.357 L/h/kg
same,Cmax at 28 days,"in vivo [3]; po, 50 mg/kg",59.4 ± 8.4 µg/mL
same,MRT at 28 days,"in vivo [3]; po, 50 mg/kg",4.9 ± 0.8 h
same,Tmax,"in vivo [3]; po, 50 mg/kg",1.2 ± 0.4 h
same,half-life at 28 days,"in vivo [3]; po, 50 mg/kg",3.3 ± 0.5 h
same,Vd,"in vivo [3]; po, 50 mg/kg",1.73 L/kg
same,AUC(0-inf),"in vivo [3]; po, 150 mg/kg",615 ± 129 µg·h/mL
same,AUC(0-t),"in vivo [3]; po, 150 mg/kg",573 ± 128 µg·h/mL
same,CL/F at 28 days,"in vivo [3]; po, 150 mg/kg",0.504 L/h/kg
same,Cmax,"in vivo [3]; po, 150 mg/kg",171 ± 79.9 µg/mL
same,MRT at 28 days,"in vivo [3]; po, 150 mg/kg",4.6 ± 0.8 h
same,Tmax,"in vivo [3]; po, 150 mg/kg",1.2 ± 0.4 h
same,half-life at 28 days,"in vivo [3]; po, 150 mg/kg",3.1 ± 0.3 h
same,Vd,"in vivo [3]; po, 150 mg/kg",2.34 L/kg
same,AUC(0-inf),[4]; single oral dose 20 mg/kg,38 ± 22.8 µg·h/mL
same,AUC(0-t),[4]; single oral dose 20 mg/kg,20.6 ± 6.6 µg·h/mL
same,Cmax,[4]; single oral dose 20 mg/kg,2.3 ± 1.4 µg/mL
same,Tmax,[4]; single oral dose 20 mg/kg,4 ± 1.7 h
same,AUC(0-inf),[4]; single oral dose 80 mg/kg,103 ± 13.1 µg·h/mL
same,AUC(0-t),[4]; single oral dose 80 mg/kg,98 ± 13.2 µg·h/mL
same,Cmax,[4]; single oral dose 80 mg/kg,18.7 ± 1 µg/mL
same,Tmax,[4]; single oral dose 80 mg/kg,2.8 ± 1.5 h
